Measurements published in patent US12291518B2, “Thyroid hormone receptor agonists and use thereof” (Eccogene Inc., priority 2020, dated 2025).

Key:
[1] = target: T1, THR alpha-LBD (Homo sapiens, UniProt P10827); assay: THR-α Coactivator Peptide Recruitment Assay (LanthaScreen TR-FRET); type: biochemical; conditions: TR-FRET coactivator recruitment, THR alpha-LBD 0.25 nM; for EC50: read-out: THRα EC50
T1 construct: except that THR alpha-LBD of a final concentration 0.25 nM was used; purchased Invitrogen PV4687
T1 sequence (P10827 163-410 isoform P10827-2 limits assumed, other chains not shown): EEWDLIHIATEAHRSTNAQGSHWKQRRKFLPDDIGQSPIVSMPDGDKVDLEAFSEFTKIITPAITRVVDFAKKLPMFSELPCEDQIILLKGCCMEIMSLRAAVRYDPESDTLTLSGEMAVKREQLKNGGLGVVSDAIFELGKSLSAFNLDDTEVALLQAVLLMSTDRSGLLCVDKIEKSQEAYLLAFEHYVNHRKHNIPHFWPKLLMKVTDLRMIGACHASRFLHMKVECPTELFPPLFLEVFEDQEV
Procedure, shortened: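 TR-FRET coactivator recruitment with THR alpha-LBD at 0.25 nM final, Fluorescein-SRC2-2 peptide 0.1 nM and Tb-labeled anti-GST antibody 2 nM; 2 h incubation at room temperature. 520/495 nm emission ratio fitted to a four-parameter sigmoidal curve to give EC50.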

[2] = target: T2, THR beta-LBD (Homo sapiens, UniProt P10828); assay: THR-β Coactivator Peptide Recruitment Assay (LanthaScreen TR-FRET); type: biochemical; conditions: TR-FRET coactivator recruitment, THR beta-LBD 0.5 nM; for EC50: read-out: THRβ EC50
T2 construct: THR beta-LBD (the final concentration is 0.5 nM) was added to the 384-well assay plate; purchased Invitrogen PV4686
T2 sequence (P10828 217-461 limits assumed): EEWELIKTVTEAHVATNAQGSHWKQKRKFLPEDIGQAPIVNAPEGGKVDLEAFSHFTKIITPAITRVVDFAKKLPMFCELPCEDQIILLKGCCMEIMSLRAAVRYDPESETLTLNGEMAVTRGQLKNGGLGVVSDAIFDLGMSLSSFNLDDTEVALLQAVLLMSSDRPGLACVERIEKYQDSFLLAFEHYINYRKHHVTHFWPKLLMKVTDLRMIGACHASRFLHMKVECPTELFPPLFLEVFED
Procedure, shortened: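 Agonist-driven coactivator recruitment read as a 520/495 nm TR-FRET emission ratio after 2 h at room temperature. Final concentrations: THR beta-LBD 0.5 nM, fluorescein-SRC2-2 peptide 0.1 nM, terbium anti-GST antibody 2 nM. EC50 from four-parameter dose-response fitting.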

| SMILES | THRα Emax [1] | EC50 [1] [nM] | THRβ Emax [2] | EC50 [2] [nM] |
| --- | --- | --- | --- | --- |
| COCC1(NS(=O)(=O)c2cc(Oc3c(Cl)cc(-n4nc(C(F)F)c(=O)[nH]c4=O)cc3Cl)ncc2O)CC1 [Compound 103, 2-(2,6-dichloro-4-(6-(difluoromethyl)-3,5-dioxo-4,5-dihydro-1,2,4-triazin-2(3H)-yl)phenoxy)-5-hydroxy-N-(1-(methoxymethyl)cyclopropyl)pyridine-4-sulfonamide] | B (40~85) | > 1000 | C (<75) | 2 to 20 |
| O=c1[nH]c(=O)n(-c2cc(Cl)c(Oc3cc(S(=O)(=O)N[C@H]4CCOC4)c(O)cn3)c(Cl)c2)nc1C(F)F [Compound 104, (S)-2-(2,6-dichloro-4-(6-(difluoromethyl)-3,5-dioxo-4,5-dihydro-1,2,4-triazin-2(3H)-yl)phenoxy)-5-hydroxy-N-(tetrahydrofuran-3-yl)pyridine-4-sulfonamide] | B (40~85) | 2 to 200 | B (75~90) | < 2 |
| O=c1[nH]c(=O)n(-c2cc(Cl)c(Oc3cc(S(=O)(=O)NC4CC(F)(F)C4)c(O)cn3)c(Cl)c2)nc1C(F)F [Compound 105, 2-(2,6-dichloro-4-(6-(difluoromethyl)-3,5-dioxo-4,5-dihydro-1,2,4-triazin-2(3H)-yl)phenoxy)-N-(3,3-difluorocyclobutyl)-5-hydroxypyridine-4-sulfonamide] | A (85~110) | 2 to 200 | B (75~90) | < 2 |
| O=c1[nH]c(=O)n(-c2cc(Cl)c(Oc3cc(S(=O)(=O)N[C@@H]4CCOC4)c(O)cn3)c(Cl)c2)nc1C(F)F [Compound 106, (R)-2-(2,6-dichloro-4-(6-(difluoromethyl)-3,5-dioxo-4,5-dihydro-1,2,4-triazin-2(3H)-yl)phenoxy)-5-hydroxy-N-(tetrahydrofuran-3-yl)pyridine-4-sulfonamide] | A (85~110) | 2 to 200 | B (75~90) | 2 to 20 |
| O=c1[nH]c(=O)n(-c2cc(Cl)c(Oc3cc(S(=O)(=O)N4CC(O)C4)c(O)cn3)c(Cl)c2)nc1C(F)F [Compound 107, 2-(3,5-dichloro-4-((5-hydroxy-4-((3-hydroxyazetidin-1-yl)sulfonyl)pyridin-2-yl)oxy)phenyl)-6-(difluoromethyl)-1,2,4-triazine-3,5(2H,4H)-dione] | B (40~85) | 2 to 200 | B (75~90) | 2 to 20 |
| O=c1[nH]c(=O)n(-c2cc(Cl)c(Oc3cc(S(=O)(=O)N4CC[C@H](O)C4)c(O)cn3)c(Cl)c2)nc1C(F)F [Compound 108, (S)-2-(3,5-dichloro-4-((5-hydroxy-4-((3-hydroxypyrrolidin-1-yl)sulfonyl)pyridin-2-yl)oxy)phenyl)-6-(difluoromethyl)-1,2,4-triazine-3,5(2H,4H)-dione] | B (40~85) | 2 to 200 | B (75~90) | 2 to 20 |
| O=c1[nH]c(=O)n(-c2cc(Cl)c(Oc3cc(S(=O)(=O)N4CC(F)(F)C4)c(O)cn3)c(Cl)c2)nc1C(F)F [Compound 109, 2-(3,5-dichloro-4-((4-((3,3-difluoroazetidin-1-yl)sulfonyl)-5-hydroxypyridin-2-yl)oxy)phenyl)-6-(difluoromethyl)-1,2,4-triazine-3,5(2H,4H)-dione] | A (85~110) | 2 to 200 | B (75~90) | < 2 |
| CC(C)NS(=O)(=O)c1cc(Oc2c(Cl)cc(-n3nc(C(F)F)c(=O)[nH]c3=O)cc2Cl)ncc1O [Compound 110, 2-(2,6-dichloro-4-(6-(difluoromethyl)-3,5-dioxo-4,5-dihydro-1,2,4-triazin-2(3H)-yl)phenoxy)-5-hydroxy-N-isopropylpyridine-4-sulfonamide] | A (85~110) | 2 to 200 | A (90~110) | < 2 |
| O=c1[nH]c(=O)n(-c2cc(Cl)c(Oc3cc(S(=O)(=O)NCC(F)F)c(O)cn3)c(Cl)c2)nc1C(F)F [Compound 111, 2-(2,6-dichloro-4-(6-(difluoromethyl)-3,5-dioxo-4,5-dihydro-1,2,4-triazin-2(3H)-yl)phenoxy)-N-(2,2-difluoroethyl)-5-hydroxypyridine-4-sulfonamide] | A (85~110) | 2 to 200 | A (90~110) | < 2 |
| CCNS(=O)(=O)c1cc(Oc2c(Cl)cc(-n3nc(C(F)F)c(=O)[nH]c3=O)cc2Cl)ncc1O [Compound 112, 2-(2,6-dichloro-4-(6-(difluoromethyl)-3,5-dioxo-4,5-dihydro-1,2,4-triazin-2(3H)-yl)phenoxy)-N-ethyl-5-hydroxypyridine-4-sulfonamide] | A (85~110) | 2 to 200 | A (90~110) | < 2 |
| CN(C)S(=O)(=O)c1cc(Oc2c(Cl)cc(-n3nc(C(F)F)c(=O)[nH]c3=O)cc2Cl)ncc1O [Compound 113, 2-(2,6-dichloro-4-(6-(difluoromethyl)-3,5-dioxo-4,5-dihydro-1,2,4-triazin-2(3H)-yl)phenoxy)-5-hydroxy-N,N-dimethylpyridine-4-sulfonamide] | A (85~110) | 2 to 200 | B (75~90) | < 2 |
| N#Cc1nn(-c2cc(Cl)c(Oc3cc(S(=O)(=O)NC4CC4)c(O)cn3)c(Cl)c2)c(=O)[nH]c1=O [Compound 114, N-cyclopropyl-2-(2,6-dichloro-4-(6-cyano-3,5-dioxo-4,5-dihydro-1,2,4-triazin-2(3H)-yl)phenoxy)-5-hydroxypyridine-4-sulfonamide] | A (85~110) | 2 to 200 | A (90~110) | < 2 |
| O=C(NC1CCC1)C1(NS(=O)(=O)c2cc(Oc3c(Cl)cc(-n4nc(C(F)F)c(=O)[nH]c4=O)cc3Cl)ncc2O)CC1 [Compound 115, N-cyclobutyl-1-[[2-[2,6-dichloro-4-[6-(difluoromethyl)-3,5-dioxo-1,2,4-triazin-2-yl]phenoxy]-5-hydroxy-4-pyridyl]sulfonylamino]cyclopropanecarboxamide] | B (40~85) | > 1000 | C (<75) | 2 to 20 |
| O=C(NC1CCCC1)C1(NS(=O)(=O)c2cc(Oc3c(Cl)cc(-n4nc(C(F)F)c(=O)[nH]c4=O)cc3Cl)ncc2O)CC1 [Compound 116, N-cyclopentyl-1-((2-(2,6-dichloro-4-(6-(difluoromethyl)-3,5-dioxo-4,5-dihydro-1,2,4-triazin-2(3H)-yl)phenoxy)-5-hydroxypyridine)-4-sulfonamido)cyclopropane-1-carboxamide] | B (40~85) | > 1000 | C (<75) | 20 to 100 |
| O=C(NCC(F)F)C1(NS(=O)(=O)c2cc(Oc3c(Cl)cc(-n4nc(C(F)F)c(=O)[nH]c4=O)cc3Cl)ncc2O)CC1 [Compound 117, 1-((2-(2,6-dichloro-4-(6-(difluoromethyl)-3,5-dioxo-4,5-dihydro-1,2,4-triazin-2(3H)-yl)phenoxy)-5-hydroxypyridine)-4-sulfonamido)-N-(2,2-difluoroethyl)cyclopropane-1-carboxamide] | C (<40) | > 1000 | C (<75) | 20 to 100 |
| O=C(N1CCCC1)C1(NS(=O)(=O)c2cc(Oc3c(Cl)cc(-n4nc(C(F)F)c(=O)[nH]c4=O)cc3Cl)ncc2O)CC1 [Compound 118, 2-(2,6-dichloro-4-(6-(difluoromethyl)-3,5-dioxo-4,5-dihydro-1,2,4-triazin-2(3H)-yl)phenoxy)-5-hydroxy-N-(1-(pyrrolidine-1-carbonyl)cyclopropyl)pyridine-4-sulfonamide] | C (<40) | > 1000 | B (75~90) | > 100 |
| O=C(CNS(=O)(=O)c1cc(Oc2c(Cl)cc(-n3nc(C(F)F)c(=O)[nH]c3=O)cc2Cl)ncc1O)NC1CCC1 [Compound 119, N-cyclobutyl-2-[[2-[2,6-dichloro-4-[6-(difluoromethyl)-3,5-dioxo-1,2,4-triazin-2-yl]-phenoxy]-5-hydroxy-4-pyridyl]-sulfonylamino]-acetamide] | C (<40) | > 1000 | C (<75) | > 100 |
| O=C(CNS(=O)(=O)c1cc(Oc2c(Cl)cc(-n3nc(C(F)F)c(=O)[nH]c3=O)cc2Cl)ncc1O)NC1CC1 [Compound 120, N-cyclopropyl-2-((2-(2,6-dichloro-4-(6-(difluoromethyl)-3,5-dioxo-4,5-dihydro-1,2,4-triazin-2(3H)-yl)phenoxy)-5-hydroxypyridine)-4-sulfonamido)acetamide] | C (<40) | > 1000 | C (<75) | > 100 |
